What was measured:
[1] = biological target: human vasopressin V1a receptor (Homo sapiens (Human), UniProt P37288); experiment: Vasopressin V1a receptor binding assay; details: selectivity quotient, human V1a vs human V1b receptor
Protocol: The test substances were dissolved in a concentration of 5 mM M in DMSO. Further dilution of these DMSO solutions took place as described for V1b.
The membrane pellet was again homogenized in a High-Pressure-Homogenizer, Polytec 50K at 1500 PSI (Heinemann, Germany) and subsequently taken up in 50 mM Tris-HCl, pH 7.4, homogenized and stored in aliquots frozen in liquid nitrogen at −190° C.
(§1) The incubation buffer was: 50 mM Tris, 10 mM MgCl2, 0.1% BSA, pH 7.4.
Duplicate determinations were carried out.
After incubation (60 minutes at room temperature), the samples were processed as described for V1b.
(§2) The binding parameters were calculated by nonlinear regression in SAS.

[2] = biological target: human vasopressin V1b receptor (Homo sapiens (Human), UniProt P47901); experiment: Vasopressin V1b receptor binding assay; details: membranes from CHO-K1 cells, displacement of 3H-AVP
Protocol: The test substances were dissolved in a concentration of 5 mM in 100% DMSO and further diluted to 5×10^−4 M to 5×10^−9 M. These serial DMSO predilutions were diluted 1:10 with assay buffer. The substance concentration was further diluted 1:5 in the assay mixture resulting in 2% DMSO in the mixture. All dilutions were performed in a Biomek NX automation workstation (Beckman)
The membrane pellet was again homogenized and centrifuged as described and subsequently taken up in 50 mM Tris-HCl, pH 7.4, homogenized and stored in aliquots frozen in liquid nitrogen at −190° C.
as §1
All determinations were carried out as duplicate determinations. […] The liquid scintillation measurement took place in a Microbeta TriLux 12 (Wallac). Analysis:
as §2

Chain of human vasopressin V1a receptor (P37288 whole entry): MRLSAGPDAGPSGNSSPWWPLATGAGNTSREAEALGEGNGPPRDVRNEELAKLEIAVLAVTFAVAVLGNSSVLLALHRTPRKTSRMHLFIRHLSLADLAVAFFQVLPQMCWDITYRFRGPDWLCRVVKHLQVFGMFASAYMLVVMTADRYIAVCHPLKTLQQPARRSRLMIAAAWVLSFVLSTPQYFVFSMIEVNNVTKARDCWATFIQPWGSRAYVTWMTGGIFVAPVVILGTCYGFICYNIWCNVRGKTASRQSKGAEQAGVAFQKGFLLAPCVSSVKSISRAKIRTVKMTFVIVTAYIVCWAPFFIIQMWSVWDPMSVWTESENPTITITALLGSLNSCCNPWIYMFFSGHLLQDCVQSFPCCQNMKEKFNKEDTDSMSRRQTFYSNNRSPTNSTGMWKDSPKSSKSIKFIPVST
Chain of human vasopressin V1b receptor (P47901 whole entry): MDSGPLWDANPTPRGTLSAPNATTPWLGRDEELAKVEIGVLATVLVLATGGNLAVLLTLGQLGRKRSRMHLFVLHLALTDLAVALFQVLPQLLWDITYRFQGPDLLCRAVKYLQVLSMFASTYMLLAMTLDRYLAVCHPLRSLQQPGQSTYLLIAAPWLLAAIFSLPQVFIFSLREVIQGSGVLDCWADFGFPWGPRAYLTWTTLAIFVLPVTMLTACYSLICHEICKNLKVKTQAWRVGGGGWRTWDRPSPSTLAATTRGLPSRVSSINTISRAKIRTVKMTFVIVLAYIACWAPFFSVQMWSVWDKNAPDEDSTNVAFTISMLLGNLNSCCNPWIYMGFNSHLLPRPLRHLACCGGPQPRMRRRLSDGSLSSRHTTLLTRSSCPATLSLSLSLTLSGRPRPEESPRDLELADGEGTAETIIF

SMILES | Ki(h-V1a)/ Ki(h-V1b) [1] | Ki [2]
COc1ccc(S(=O)(=O)N2C(=O)C(c3ccccc3OC)(N3CC4(CN(C5CCN(C)CC5)C4)C3)c3cc(C#N)ccc32)nc1 (racemic) [Example 18, (±)3-(2-methoxyphenyl)-1-[(5-methoxy-2-pyridyl)sulfonyl]-3-[2-(1-methyl-4-piperidyl)-2,6-diazaspiro[3.3]heptan-6-yl]-2-oxo-indoline-5-carbonitrile] | +++ (>75) | < 1 nM
CCOc1ccc(OC)cc1C1(N2CC3(CN(C4CCN(C(C)C)CC4)C3)C2)C(=O)N(S(=O)(=O)c2ccc(OC)cn2)c2ccc(C#N)cc21 (racemic) [Example 19, (±)-3-(2-ethoxy-5-methoxy-phenyl)-3-[2-(1-isopropyl-4-piperidyl)-2,6-diazaspiro[3.3]heptan-6-yl]-1-[(5-methoxy-2-pyridyl)sulfonyl]-2-oxo-indoline-5-carbonitrile] | +++ (>75) | < 1 nM
CCOc1ccc(OC)cc1C1(N2CC3(CN(C4CCN(CCOC)CC4)C3)C2)C(=O)N(S(=O)(=O)c2ccc(OC)cn2)c2ccc(C#N)cc21 (racemic) [Example 20, (±)-3-(2-ethoxy-5-methoxy-phenyl)-3-[2-[1-(2-methoxyethyl)-4-piperidyl]-2,6-diazaspiro[3.3]heptan-6-yl]-1-[(5-methoxy-2-pyridyl)sulfonyl]-2-oxo-indoline-5-carbonitrile] | +++ (>75) | 1 to 10 nM
COc1ccc(S(=O)(=O)N2C(=O)C(c3cc(OC)ccc3OC)(N3CC4(CN(C5CCN(C)CC5)C4)C3)c3cc(C#N)ccc32)nc1 (racemic) [Example 21, (±)-3-(2,5-dimethoxyphenyl)-1-[(5-methoxy-2-pyridyl)sulfonyl]-3-[2-(1-methyl-4-piperidyl)-2,6-diazaspiro[3.3]heptan-6-yl]-2-oxo-indoline-5-carbonitrile] | + (10-<25) | < 1 nM
COc1ccc(S(=O)(=O)N2C(=O)C(c3cccnc3OC)(N3CC4(CN(C5CCN(C)CC5)C4)C3)c3cc(C#N)ccc32)nc1 (racemic) [Example 22, (±)-3-(2-methoxy-3-pyridyl)-1-[(5-methoxy-2-pyridyl)sulfonyl]-3-[2-(1-methyl-4-piperidyl)-2,6-diazaspiro[3.3]heptan-6-yl]-2-oxo-indoline-5-carbonitrile] | + (10-<25) | 1 to 10 nM
COc1ccc(S(=O)(=O)N2C(=O)C(c3ccccc3OC)(N3CC4(CC(N5CCN(C)CC5)C4)C3)c3cc(C#N)ccc32)nc1 (racemic) [Example 26, (±)-3-(2-methoxyphenyl)-1-[(5-methoxy-2-pyridyl)sulfonyl]-3-[2-(4-methylpiperazin-1-yl)-6-azaspiro[3.3]heptan-6-yl]-2-oxo-indoline-5-carbonitrile] | ++ (25-75) | 1 to 10 nM
CCOc1ncccc1C1(N2CC3(CC(N4CCN(C)CC4)C3)C2)C(=O)N(S(=O)(=O)c2ccc(OC)cn2)c2ccc(C#N)cc21 (racemic) [Example 27, (±)-3-(2-ethoxy-3-pyridyl)-1-[(5-methoxy-2-pyridyl)sulfonyl]-3-[2-(4-methylpiperazin-1-yl)-6-azaspiro[3.3]heptan-6-yl]-2-oxo-indoline-5-carbonitrile] | +++ (>75) | 1 to 10 nM
CCOc1ccc(OC)cc1C1(N2CC3(CC(N4CCN(C5COC5)CC4)C3)C2)C(=O)N(S(=O)(=O)c2ccc(OC)cn2)c2ccc(C#N)cc21 (racemic) [Example 28, (±)-3-(2-ethoxy-5-methoxy-phenyl)-1-[(5-methoxy-2-pyridyl)sulfonyl]-3-[2-[4-(oxetan-3-yl)piperazin-1-yl]-6-azaspiro[3.3]heptan-6-yl]-2-oxo-indoline-5-carbonitrile] | +++ (>75) | 1 to 10 nM
COc1ccc(S(=O)(=O)N2C(=O)C(c3cccnc3C(C)(F)F)(N3CC4(CN(C5CCN(C)CC5)C4)C3)c3cc(C#N)ccc32)nc1 (racemic) [Example 30, (±)-3-[2-(1,1-difluoroethyl)-3-pyridyl]-1-[(5-methoxy-2-pyridyl)sulfonyl]-3-[2-(1-methyl-4-piperidyl)-2,6-diazaspiro[3.3]heptan-6-yl]-2-oxo-indoline-5-carbonitrile] | + (10-<25) | 1 to 10 nM
CCOc1ccc(OC)cc1C1(N2CC3(CN(C4CCN(C)CC4)C3)C2)C(=O)N(S(=O)(=O)c2ccc(OC)cn2)c2ccc(C#N)cc21 (single isomer, unassigned; (+)) [Example 1A, (+)-3-(2-ethoxy-5-methoxy-phenyl)-1-[(5-methoxy-2-pyridyl)sulfonyl]-3-[2-(1-methyl-4-piperidyl)-2,6-diazaspiro[3.3]heptan-6-yl]-2-oxo-indoline-5-carbonitrile] | +++ (>75) | < 1 nM
CCOc1ncccc1C1(N2CC3(CN(C4CCN(C)CC4)C3)C2)C(=O)N(S(=O)(=O)c2ccc(OC)cn2)c2ccc(C#N)cc21 (single isomer, unassigned; (+)) [Example 9A, (+)-3-(2-ethoxy-3-pyridyl)-1-[(5-methoxy-2-pyridyl)sulfonyl]-3-[2-(1-methyl-4-piperidyl)-2,6-diazaspiro[3.3]heptan-6-yl]-2-oxo-indoline-5-carbonitrile] | +++ (>75) | < 1 nM
CCOc1ccc(OC)cc1C1(N2CC3(CN(C4CCN(C5COC5)CC4)C3)C2)C(=O)N(S(=O)(=O)c2ccc(OC)cn2)c2ccc(C#N)cc21 (single isomer, unassigned; (+)) [Example 11, (+)-3-(2-ethoxy-5-methoxyphenyl)-1-((5-methoxypyridin-2-yl)sulfonyl)-3-(6-(1-(oxetan-3-yl)piperidin-4-yl)-2,6-diazaspiro[3.3]heptan-2-yl)-2-oxoindoline-5-carbonitrile] | +++ (>75) | < 1 nM
CCOc1ccc(OC)cc1C1(N2CC3(CC(N4CCN(C)CC4)C3)C2)C(=O)N(S(=O)(=O)c2ccc(OC)cn2)c2ccc(C#N)cc21 (single isomer, unassigned; (+)) [Example 17B, (+)-3-(2-ethoxy-5-methoxy-phenyl)-1-[(5-methoxy-2-pyridyl)sulfonyl]-3-[2-(4-methylpiperazin-1-yl)-6-azaspiro[3.3]heptan-6-yl]-2-oxo-indoline-5-carbonitrile] | +++ (>75) | < 1 nM
COc1ccc(S(=O)(=O)N2C(=O)C(c3ccccc3OC)(N3CC4(CN(C5CCN(C)CC5)C4)C3)c3cc(C#N)ccc32)nc1 (single isomer, unassigned; (+)) [Example 18A, (+)-3-(2-methoxyphenyl)-1-[(5-methoxy-2-pyridyl)sulfonyl]-3-[2-(1-methyl-4-piperidyl)-2,6-diazaspiro[3.3]heptan-6-yl]-2-oxo-indoline-5-carbonitrile] | + (10-<25) | < 1 nM
COc1ccc(S(=O)(=O)N2C(=O)C(c3ccccc3OC)(N3CC4(CN(C5CCN(C6COC6)CC5)C4)C3)c3cc(C#N)ccc32)nc1 (single isomer, unassigned; (+)) [Example 23, (+)-3-(2-methoxyphenyl)-1-[(5-methoxy-2-pyridyl)sulfonyl]-3-[2-[1-(oxetan-3-yl)-4-piperidyl]-2,6-diazaspiro[3.3]heptan-6-yl]-2-oxo-indoline-5-carbonitrile] | + (10-<25) | 1 to 10 nM
CCOc1ccc(OC)cc1C1(N2CC3(CN(c4ccnc(C)c4)C3)C2)C(=O)N(S(=O)(=O)c2ccc(OC)cc2OC)c2ccc(C#N)cc21 (single isomer, unassigned; (+)) [Example 24, (+)-1-(2,4-dimethoxyphenyl)sulfonyl-3-(2-ethoxy-5-methoxy-phenyl)-3-[2-(2-methyl-4-pyridyl)-2,6-diazaspiro[3.3]heptan-6-yl]-2-oxo-indoline-5-carbonitrile] | +++ (>75) | 10 to 100 nM
CCOc1ccc(OC)cc1C1(N2CC3(CN(c4ccnc(C)c4)C3)C2)C(=O)N(S(=O)(=O)c2ccc(OC)cn2)c2ccc(C#N)cc21 (single isomer, unassigned; (+)) [Example 25, (+)-3-(2-ethoxy-5-methoxy-phenyl)-1-[(5-methoxy-2-pyridyl)sulfonyl]-3-[2-(2-methyl-4-pyridyl)-2,6-diazaspiro[3.3]heptan-6-yl]-2-oxo-indoline-5-carbonitrile] | +++ (>75) | < 1 nM
CCOc1ccc(OC)cc1C1(N2CC3(CN(C4CCN(C)CC4)C3)C2)C(=O)N(S(=O)(=O)c2ccc(OC)cn2)c2ccc(C#N)cc21 (single isomer, unassigned; (-)) [Example 1B, (−)-3-(2-ethoxy-5-methoxy-phenyl)-1-[(5-methoxy-2-pyridyl)sulfonyl]-3-[2-(1-methyl-4-piperidyl)-2,6-diazaspiro[3.3]heptan-6-yl]-2-oxo-indoline-5-carbonitrile] | +++ (>75) | 10 to 100 nM
CCOc1ccc(OC)cc1[C@]1(N2CC3(CN(C4CCN(C)CC4)C3)C2)C(=O)N(S(=O)(=O)c2ccc(OC)nc2)c2ccc(C#N)cc21 [Example 31, (3S)-3-(2-ethoxy-5-methoxy-phenyl)-1-[(6-methoxy-3-pyridyl)sulfonyl]-3-[2-(1-methyl-4-piperidyl)-2,6-diazaspiro[3.3]heptan-6-yl]-2-oxo-indoline-5-carbonitrile] | + (10-<25) | 1 to 10 nM
